According to patent US5582981A, “Method for identifying an oligonucleotide aptamer specific for a target” (priority 1994, dated 1996):

Tested on: thrombin
Experiment: clotting time for thrombin-catalyzed conversion of fibrinogen to fibrin
Assay type: biochemical
Settings: thrombin 10 nM, 7 mer at 20 μM; thrombin alone 24 sec
Protocol: Clotting time for the thrombin-catalyzed conversion of fibrinogen (2.0 mg/ml in selection buffer) to fibrin at 37° C. was measured using a precision coagulation timer apparatus (Becton-Dickinson, Cat. nos. 64015, 64019, 64020). Thrombin (10 nM) incubated with fibrinogen alone clotted in 40 sec, thrombin incubated with fibrinogen and P1 nuclease (Boehringer-Mannheim, Indianapolis, Ind.) clotted in 39 sec, thrombin incubated with fibrinogen and aptamer clone #5 (200 nM) clotted in 115 sec, and thrombin incubated with fibrinogen, clone #5 (200 nM) and P1 nuclease clotted in 40 sec. All incubations were carried out at 37° C. using reagents prewarmed to 37° C. Aptamer DNA or, when present, P1 nuclease, was added to the fibrinogen solution prior to addition of thrombin.
Inhibition of thrombin activity was studied using a consensus-related sequence 7 mer, 5' GGTTGGG 3' (SEQ ID NO: 15), and a control 7 mer with the same base composition but different sequence (5' GGGGGTT 3') (SEQ ID NO: 16). Clotting times were measured using the timer apparatus as above. The thrombin clotting time in this experiment was 24 sec using thrombin alone (10 nM), 26 sec with thrombin and the control sequence at 20 μM and 38 sec with thrombin plus the consensus sequence at 20 μM, indicating specificity for thrombin inhibition at the level of the 7 mer.

**Q.** How did the thrombin clotting time turn out when “5' GGGGGTT 3' (chemistry not given here) [SEQ ID NO: 16]” was run?
**A.** 26 s

**Q.** How did the thrombin clotting time turn out when “5' GGTTGGG 3' (chemistry not given here) [SEQ ID NO: 15]” was run?
**A.** 38 s
